Calls of active or inactive are those of the source. No cut-off for these calls is given here.
Key:
[1] = Inhibition of recombinant Schistosoma manson carbonic anhydrase pre-incubated with enzyme for 15 mins by phenol red dye based stopped flow CO2 hydration assay; parameters: species or system Schistosoma mansoni
[2] = Selectivity ratio of Ki for inhibition of recombinant human carbonic anhydrase 2 to Ki for inhibition of recombinant Schistosoma manson carbonic anhydrase; format: toxicity
Schistosoma mansoni [3] = experiment: Antischistosomal activity against Schistosoma mansoni Puerto-Rican infected in Swiss Webster mouse assessed as worm burden reduction at 100 mg/kg, ip administered at 42, 44 and 46 hrs post infection and measured after 2 weeks; format: functional, organism-based
Schistosoma mansoni [4] = experiment: Antischistosomal activity against Schistosoma mansoni Puerto-Rican infected in Swiss Webster mouse assessed as worm burden reduction at 50 mg/kg, ip administered at 42, 44 and 46 hrs post infection and measured after 2 weeks; format: functional, organism-based

NS(=O)(=O)c1ccc(NC(=[Se])Nc2cccc(C(F)(F)F)c2)cc1
Ki [1]: 1.5 nM
Ratio Ki [2]: 4.1

NS(=O)(=O)c1ccc(CCNC(=[Se])Nc2cccc(C(F)(F)F)c2)cc1
Ki [1]: 4.5 nM
Ratio Ki [2]: 0.97

NS(=O)(=O)c1ccc(CCNC(=O)Nc2ccc(I)cc2)cc1
Ki [1]: 13.3 nM
Ratio Ki [2]: 0.6

NS(=O)(=O)c1ccc(CCNC(=[Se])Nc2ccccc2Cl)cc1
Ki [1]: 5.8 nM
Ratio Ki [2]: 0.6
Activity (Schistosoma mansoni [3]): inactive

NS(=O)(=O)c1ccc(CCNC(=[Se])Nc2ccc(Br)cc2)cc1
Ki [1]: 1.7 nM
Ratio Ki [2]: 1.05

NS(=O)(=O)c1ccc(CCNC(=[Se])Nc2ccccc2F)cc1
Ki [1]: 7.9 nM
Ratio Ki [2]: 1

NS(=O)(=O)c1ccc(CCNC(=[Se])Nc2ccc(I)cc2)cc1
Ki [1]: 4.7 nM
Ratio Ki [2]: 12.2

NS(=O)(=O)c1ccc(NC(=[Se])Nc2ccccc2)cc1
Ki [1]: 83.7 nM
Ratio Ki [2]: 0.6
Activity (Schistosoma mansoni [3]): inactive

NS(=O)(=O)c1ccc(NC(=S)Nc2ccc(F)cc2)cc1
Ki [1]: 23.3 nM
Ratio Ki [2]: 0.6

NS(=O)(=O)c1ccc(NC(=[Se])Nc2ccc(F)cc2)cc1
Ki [1]: 76.8 nM
Ratio Ki [2]: 0.9

CC(=O)Nc1nnc(S(N)(=O)=O)s1 [ACETAZOLAMIDE]
Ki [1]: 42.5 nM
Ratio Ki [2]: 0.3

NS(=O)(=O)c1ccc(CCNC(=[Se])Nc2ccc3ccccc3c2)cc1
Ki [1]: 84.9 nM
Ratio Ki [2]: 1.1

NS(=O)(=O)c1ccc(NC(=[Se])Nc2ccccc2Cl)cc1
Ki [1]: 6.8 nM
Ratio Ki [2]: 0.6

NS(=O)(=O)c1ccc(NC(=O)Nc2ccc(F)cc2)cc1 [SLC-0111]
Ki [1]: 54.3 nM
Ratio Ki [2]: 1.7
Activity (Schistosoma mansoni [4]): inactive

NS(=O)(=O)c1ccc(CCNC(=[Se])Nc2ccccc2)cc1
Ki [1]: 3.2 nM
Ratio Ki [2]: 1.7

NS(=O)(=O)c1ccc(CCNC(=S)Nc2ccc(I)cc2)cc1
Ki [1]: 37.6 nM
Ratio Ki [2]: 0.2

COc1ccccc1NC(=[Se])NCCc1ccc(S(N)(=O)=O)cc1
Ki [1]: 6.1 nM
Ratio Ki [2]: 0.7

NS(=O)(=O)c1ccc(NC(=[Se])Nc2ccccc2F)cc1
Ki [1]: 5.7 nM
Ratio Ki [2]: 1.1

NS(=O)(=O)c1cccc(NC(=[Se])Nc2ccccc2)c1
Ki [1]: 426 nM
Ratio Ki [2]: 0.8

NS(=O)(=O)c1cccc(NC(=[Se])Nc2ccc(F)cc2)c1
Ki [1]: 91.4 nM
Ratio Ki [2]: 4.2

Source: ChEMBL document CHEMBL5034017, “Structural Insights into Schistosoma mansoni Carbonic Anhydrase (SmCA) Inhibition by Selenoureido-Substituted Benzenesulfonamides” (J Med Chem, 2021)
